Experiments:
[1] = system: barnyardgrass; experiment: Test B pre-/postemergence herbicide test; format: in vivo, Echinochloa crus-galli
How it was run: (§1)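 Test chemicals in a non-phytotoxic solvent mixture with surfactant were applied preemergence to seeded species and postemergence to plants 2-18 cm tall (1- to 4-leaf stage); rice and barnyardgrass were also tested in a flooded paddy at the 2-leaf stage. Visual rating versus controls after 13-15 days in greenhouse, scale 0 (no effect) to 100 (complete control).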

[2] = system: Surinam grass; experiment: Test B pre-/postemergence herbicide test; format: in vivo, Urochloa decumbens
How it was run: (§2)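 Response was scored visually 13 to 15 days after treatment against untreated greenhouse controls, 0 meaning no effect and 100 complete control. Formulations (solvent mixture plus surfactant) went onto soil after planting, onto foliage of 1- to 4-leaf plants, and onto 2-leaf plants in a flooded paddy set including rice and barnyardgrass.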

[3] = system: cocklebur; experiment: Test B pre-/postemergence herbicide test; format: in vivo, Xanthium strumarium
How it was run: as §1

[4] = system: corn; experiment: Test B pre-/postemergence herbicide test; format: in vivo, Zea mays
How it was run: as §2

[5] = system: large crabgrass; experiment: Test B pre-/postemergence herbicide test; format: in vivo, Digitaria sanguinalis
How it was run: as §2

[6] = system: giant foxtail; experiment: Test B pre-/postemergence herbicide test; format: in vivo, Setaria faberi
How it was run: as §2

[7] = system: lambsquarters; experiment: Test B pre-/postemergence herbicide test; format: in vivo, Chenopodium album
How it was run: as §2

[8] = system: morningglory; experiment: Test B pre-/postemergence herbicide test; format: in vivo, Ipomoea coccinea
How it was run: as §1

[9] = system: pigweed; experiment: Test B pre-/postemergence herbicide test; format: in vivo, Amaranthus retroflexus
How it was run: as §2

[10] = system: rice; experiment: Test B pre-/postemergence herbicide test; format: in vivo, Oryza sativa; conditions: 0 = no effect, 100 = complete control, preemergence; for Rice plant response rating (0 to 100 scale): 125 g ai/ha; for Plant response rating, Rice: 500 g ai/ha, visual rating
How it was run: as §2

[11] = system: velvetleaf; experiment: Test B pre-/postemergence herbicide test; format: in vivo, Abutilon theophrasti
How it was run: as §2

[12] = system: blackgrass; experiment: Test B postemergence herbicide test; format: in vivo, Alopecurus myosuroides
How it was run: (§3)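 Paddy species grown to the 2-leaf stage under flooding; blackgrass sprayed postemergence at 2–18 cm (1- to 4-leaf stage). Plants kept in a greenhouse for 13 to 15 days, then visually rated against controls on 0 (no effect) to 100 (complete control).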

[13] = system: wheat; experiment: Test B postemergence herbicide test; format: in vivo, Triticum aestivum; design: key to Wheat plant response rating: 0 = no effect, 100 = complete control
How it was run: (§4)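 Scale 0–100: zero equals no visible effect, 100 complete control, judged by eye relative to controls. Timing: 13 to 15 days in greenhouse post-treatment. Growth stage at spraying: two leaves (paddy) or one to four leaves, 2–18 cm (postemergence).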

[14] = system: wild oat; experiment: Test B postemergence herbicide test; format: in vivo, Avena fatua
How it was run: as §4

[15] = system: rice; experiment: Test B flooded paddy test; format: in vivo, Oryza sativa; conditions: 1000 g ai/ha, scale 0 to 100 (0 no effect, 100 complete control)
How it was run: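 Postemergence plants were sprayed with formulated test chemicals at 2 to 18 cm height (1- to 4-leaf stage); paddy species were grown to the 2-leaf stage. After 13 to 15 days in a greenhouse, injury was rated visually against untreated controls on a 0–100 scale (0 = no effect, 100 = complete control).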

[16] = system: small flower umbrella sedge; experiment: Test B flooded paddy test; format: in vivo, Cyperus difformis; conditions: 1000 g ai/ha, scale 0 to 100 (0 no effect, 100 complete control)
How it was run: as §3

[17] = system: ducksalad; experiment: Test B flooded paddy test; format: in vivo, Heteranthera limosa; conditions: 1000 g ai/ha, scale 0 to 100 (0 no effect, 100 complete control)
How it was run: as §3

[18] = system: barnyardgrass; experiment: Test B flooded paddy test; format: in vivo, Echinochloa crus-galli; conditions: 1000 g ai/ha, scale 0 to 100 (0 no effect, 100 complete control)
How it was run: as §3

[19] = system: rice; experiment: Test C flooded paddy test; format: in vivo, Oryza sativa; conditions: for Plant response rating, Rice: 500 g ai/ha, visual rating after 12 to 14 days
How it was run: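 Postemergence sprays applied to plants 2 to 18 cm tall (1- to 4-leaf stage); paddy species grown to 2-leaf stage under flooding. After 12 to 14 days in greenhouse, visual rating versus untreated controls on 0–100 scale (0 no effect, 100 complete control).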

[20] = system: smallflower umbrella sedge; experiment: Test C flooded paddy test; format: in vivo, Cyperus difformis; conditions: for Plant response rating, Sedge, Umbrella: 500 g ai/ha, visual rating after 12 to 14 days
[21] = system: ducksalad; experiment: Test C flooded paddy test; format: in vivo, Heteranthera limosa; conditions: for Plant response rating, Ducksalad: 500 g ai/ha, visual rating after 12 to 14 days
[22] = system: barnyardgrass; experiment: Test C flooded paddy test; format: in vivo, Echinochloa crus-galli; conditions: for Plant response rating, Barnyardgrass: 500 g ai/ha, visual rating after 12 to 14 days
How it was run: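 Scoring by eye, 12–14 days post-treatment, greenhouse-held plants vs. controls; 0 no effect, 100 complete control. Sprayed at 1–4 leaves (2–18 cm); paddy barnyardgrass at 2 leaves, flooded.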

[23] = 125 g ai/ha; 0 = no effect, 100 = complete control; preemergence
[24] = 500 g ai/ha; visual rating, 0 = no effect, 100 = complete control; preemergence
[25] = postemergence, 125 g ai/ha; visual rating, scale 0 (no effect) to 100 (complete control)
[26] = postemergence, 500 g ai/ha; scale 0 to 100, 0 is no effect, 100 is complete control
[27] = 125 g ai/ha, scale 0 to 100 (0 no effect, 100 complete control)
[28] = 250 g ai/ha, scale of 0 to 100, 0 is no effect, 100 is complete control
[29] = scale 0 to 100 (0 no effect, 100 complete control)
[30] = 62 g ai/ha, scale 0 to 100 (0 no effect, 100 complete control)
[31] = 125 g ai/ha; visual rating, scale 0 (no effect) to 100 (complete control); postemergence

CCn1nc(C(C)(C)C)c(F)c1C(=O)Nc1cccc(C(=O)N(C)C)n1 [Compound 274]
Barnyardgrass plant response rating (0 to 100 scale) [1, 23]: 60
Plant response rating, Barnyardgrass [1, 24]: 100
Barnyardgrass plant response rating [1, 25]: 0
Barnyardgrass plant response rating [1, 26]: 10
Surinam Grass plant response rating (0 to 100 scale) [2, 23]: 50
Plant response rating, Surinam Grass [2, 24]: 80
Surinam Grass plant response rating [2, 25]: 20
Surinam Grass plant response rating [2, 26]: 30
Cocklebur plant response rating (0 to 100 scale) [3, 23]: 0
Plant response rating, Cocklebur [3, 24]: 0
Cocklebur plant response rating [3, 25]: 0
Cocklebur plant response rating [3, 26]: 10
Corn plant response rating (0 to 100 scale) [4, 23]: 0
Plant response rating, Corn [4, 24]: 80
Corn plant response rating [4, 25]: 0
Corn plant response rating [4, 26]: 20
Crabgrass, Large plant response rating (0 to 100 scale) [5, 23]: 10
Plant response rating, Crabgrass, Large [5, 24]: 100
Crabgrass, Large plant response rating [5, 25]: 0
Crabgrass, Large plant response rating [5, 26]: 0
Foxtail, Giant plant response rating (0 to 100 scale) [6, 23]: 10
Plant response rating, Foxtail, Giant [6, 24]: 90
Foxtail, Giant plant response rating [6, 25]: 20
Foxtail, Giant plant response rating [6, 26]: 50
Lambsquarters plant response rating (0 to 100 scale) [7, 23]: 70
Plant response rating, Lambsquarters [7, 24]: 100
Lambsquarters plant response rating [7, 25]: 40
Lambsquarters plant response rating [7, 26]: 70
Morningglory plant response rating (0 to 100 scale) [8, 23]: 0
Plant response rating, Morningglory [8, 24]: 10
Morningglory plant response rating [8, 25]: 0
Morningglory plant response rating [8, 26]: 60
Pigweed plant response rating (0 to 100 scale) [9, 23]: 30
Plant response rating, Pigweed [9, 24]: 100
Pigweed plant response rating [9, 25]: 40
Pigweed plant response rating [9, 26]: 60
Rice plant response rating (0 to 100 scale) [10]: 30
Plant response rating, Rice [10]: 80
Velvetleaf plant response rating (0 to 100 scale) [11, 23]: 20
Plant response rating, Velvetleaf [11, 24]: 70
Velvetleaf plant response rating [11, 25]: 10
Velvetleaf plant response rating [11, 26]: 10
Blackgrass plant response rating [12, 25]: 30
Blackgrass plant response rating [12, 26]: 30
Wheat plant response rating [13, 25]: 20
Wheat plant response rating [13, 26]: 20
Oat, Wild plant response rating [14, 25]: 20
Oat, Wild plant response rating [14, 26]: 40
Rice plant response rating [15]: 60
Sedge, Umbrella plant response rating [16]: 80
Ducksalad plant response rating [17]: 70
Barnyardgrass plant response rating [18]: 70
Rice plant response rating ([19]; 62 g ai/ha, scale 0 to 100): 0
Rice plant response rating [19, 27]: 0
Rice plant response rating [19, 28]: 15
Plant response rating, Rice [19, 29]: 45
Sedge, Umbrella plant response rating ([20]; 62 g ai/ha, scale 0 to 100): 0
Sedge, Umbrella plant response rating [20, 27]: 50
Sedge, Umbrella plant response rating [20, 28]: 70
Plant response rating, Sedge, Umbrella [20, 29]: 75
Ducksalad plant response rating ([21]; 62 g ai/ha, scale 0 to 100): 0
Ducksalad plant response rating [21, 27]: 0
Ducksalad plant response rating [21, 28]: 0
Plant response rating, Ducksalad [21, 29]: 20
Barnyardgrass plant response rating [22, 30]: 0
Barnyardgrass plant response rating [22, 27]: 10
Barnyardgrass plant response rating [22, 28]: 30
Plant response rating, Barnyardgrass [22, 29]: 60

CCn1nc(C2(C)CC2)cc1C(=O)Nc1cccc(C(=O)N(C)C)c1 [Compound 303]
Barnyardgrass plant response rating (0 to 100 scale) [1, 23]: 70
Barnyardgrass plant response rating [1, 31]: 40
Plant response rating, Barnyardgrass [1, 24]: 90
Barnyardgrass plant response rating [1, 26]: 40
Surinam Grass plant response rating (0 to 100 scale) [2, 23]: 50
Surinam Grass plant response rating [2, 31]: 10
Plant response rating, Surinam Grass [2, 24]: 100
Surinam Grass plant response rating [2, 26]: 20
Cocklebur plant response rating (0 to 100 scale) [3, 23]: 0
Cocklebur plant response rating [3, 31]: 10
Plant response rating, Cocklebur [3, 24]: 20
Cocklebur plant response rating [3, 26]: 30
Corn plant response rating [4, 31]: 70
Plant response rating, Corn [4, 24]: 70
Corn plant response rating [4, 26]: 70
Crabgrass, Large plant response rating (0 to 100 scale) [5, 23]: 100
Crabgrass, Large plant response rating [5, 31]: 10
Plant response rating, Crabgrass, Large [5, 24]: 100
Crabgrass, Large plant response rating [5, 26]: 60
Foxtail, Giant plant response rating (0 to 100 scale) [6, 23]: 50
Foxtail, Giant plant response rating [6, 31]: 50
Plant response rating, Foxtail, Giant [6, 24]: 100
Foxtail, Giant plant response rating [6, 26]: 50
Lambsquarters plant response rating (0 to 100 scale) [7, 23]: 100
Lambsquarters plant response rating [7, 31]: 80
Plant response rating, Lambsquarters [7, 24]: 100
Lambsquarters plant response rating [7, 26]: 90
Morningglory plant response rating (0 to 100 scale) [8, 23]: 10
Morningglory plant response rating [8, 31]: 80
Plant response rating, Morningglory [8, 24]: 50
Morningglory plant response rating [8, 26]: 90
Pigweed plant response rating (0 to 100 scale) [9, 23]: 100
Pigweed plant response rating [9, 31]: 70
Plant response rating, Pigweed [9, 24]: 100
Pigweed plant response rating [9, 26]: 90
Rice plant response rating (0 to 100 scale) [10]: 70
Plant response rating, Rice [10]: 80
Velvetleaf plant response rating [11, 31]: 30
Plant response rating, Velvetleaf [11, 24]: 100
Velvetleaf plant response rating [11, 26]: 70
Blackgrass plant response rating [12, 31]: 20
Blackgrass plant response rating [12, 26]: 40
Wheat plant response rating [13, 31]: 10
Wheat plant response rating [13, 26]: 20
Oat, Wild plant response rating [14, 31]: 30
Oat, Wild plant response rating [14, 26]: 40
Rice plant response rating [15]: 90
Sedge, Umbrella plant response rating [16]: 90
Ducksalad plant response rating [17]: 90
Barnyardgrass plant response rating [18]: 90
Rice plant response rating ([19]; 62 g ai/ha, scale 0 to 100): 30
Rice plant response rating [19, 27]: 65
Rice plant response rating [19, 28]: 80
Plant response rating, Rice [19, 29]: 85
Sedge, Umbrella plant response rating ([20]; 62 g ai/ha, scale 0 to 100): 75
Sedge, Umbrella plant response rating [20, 27]: 85
Sedge, Umbrella plant response rating [20, 28]: 85
Plant response rating, Sedge, Umbrella [20, 29]: 90
Ducksalad plant response rating ([21]; 62 g ai/ha, scale 0 to 100): 55
Ducksalad plant response rating [21, 27]: 75
Ducksalad plant response rating [21, 28]: 80
Plant response rating, Ducksalad [21, 29]: 85
Barnyardgrass plant response rating [22, 30]: 30
Barnyardgrass plant response rating [22, 27]: 45
Barnyardgrass plant response rating [22, 28]: 80
Plant response rating, Barnyardgrass [22, 29]: 95
